Test results from paper PMC3487892, “The Pentameric Channel of COMPcc in Complex with Different Fatty Acids” (PLoS ONE, 2012).
Changes are numbered by the printed parent chain.

What was measured:
[1] = test system: COMPcc; design: method as in PMID 9736606; conditions: ligand bound in the channel; ref [9]; cited from earlier work
[2] = target: T1, COMPcc (Rattus norvegicus, UniProt P35444); assay: Displacement of CPA from the CPA-COMPcc complex by fatty acids (fluorescence); type: binding; conditions: for Kd: calculated from [FA]1/2 of CPA displacement; for Kd / IC50: 1× PBS pH 7.4, 25°C, triplicate; for Interaction Free Energy: from Kd of CPA displacement; for IC50: read-out: [FA]1/2, fatty acid concentration that halves the CPA fluorescence, COMPcc ~0.1 µM, CPA 0.4 µM
T1 sequence (P35444 27-72): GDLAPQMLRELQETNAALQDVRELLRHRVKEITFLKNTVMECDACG
Procedure: Steady-state fluorescence spectra were measured on a Fluorolog-3 Horiba Jobin Yvon spectrofluorometer (Edison, NJ). The sample was held in a 10×10 mm quartz cuvette equipped with a continuous stirrer. The data were analyzed with Sigmaplot (Point Richmond, CA) software. The reaction was thermostatically controlled at 25°C by a Jeio-Tech refrigerating bath circulator (Des Plaines, IL). All fluorescence data were collected in 1× PBS buffer, pH 7.4. From the fluorescence enhancement profile of CPA, the fraction of ligand bound protein (f) can be calculated using: [drawing 1] (1) where F0 is the fluorescence of protein sample when no CPA has been added, F is the protein fluorescence at any given CPA concentration and F420 is the protein fluorescence in the presence of 3 µM of CPA. In the case of one ligand binding site, f follows a hyperbolic dependence upon ligand concentration given by: [drawing 2] (2) where B is a constant, Kd is the dissociation constant and [L]free is the concentration of free ligand (in this case CPA).
The probe CPA can also be used to characterize the binding of other fatty acids to COMPcc. The addition of fatty acids (FA) to the CPA-COMPcc complex will displace CPA leading to a decrease in fluorescence. […] In the case where there is no FA added the concentrations are [COMPcc] = [COMPcc]0 and [CPA]≈[CPA]0 = 0.4 µM. In this case the concentration of the CPA-COMPcc complex will be equal to: [drawing 5] (5) At [drawing 6] ,the concentration of the COMPcc-CPA complex is equal to one half the initial: [drawing 7] (6) Writing a mass balance for COMPcc we obtain: [drawing 8] (7) When [drawing 9] : [drawing 10] (8) The dissociation constant [drawing 11] can be calculated using the value of [FA]1/2 (the amount of fatty acid that reduces the CPA fluorescence to half its original value.

[3] = test system: COMPcc; conditions: wild type COMPcc; ref [9], [27]; cited from earlier work
[4] = test system: Q54I; conditions: Q54I mutant; ref [9], [27]; cited from earlier work
[5] = target: T2, COMPcc (Rattus norvegicus, UniProt P35444, G27M/H53Q/R54Q); assay: Fluorescence enhancement of cis-parinaric acid (CPA) on binding to COMPcc
T2 construct: The coiled-coil domain of rat COMPcc comprising residues 27–72 was prepared as described previously; made in house; host or cells: E. coli
T2 sequence (P35444 27-72 G27M/H53Q/R54Q): T1 sequence (P35444 27-72) with G1M, H27Q, R28Q
Procedure: The coiled-coil domain of rat COMPcc comprising residues 27–72 was prepared as described previously. Purified COMPcc was dialyzed against PBS pH 7.4 and concentrated to 10 mg/mL using an 10 kDa Amicon membrane (Millipore).
Steady-state fluorescence spectra were measured on a Fluorolog-3 Horiba Jobin Yvon spectrofluorometer (Edison, NJ). The sample was held in a 10×10 mm quartz cuvette equipped with a continuous stirrer. The data were analyzed with Sigmaplot (Point Richmond, CA) software. The reaction was thermostatically controlled at 25°C by a Jeio-Tech refrigerating bath circulator (Des Plaines, IL). All fluorescence data were collected in 1× PBS buffer, pH 7.4. From the fluorescence enhancement profile of CPA, the fraction of ligand bound protein (f) can be calculated using: [drawing 1] (1) where F0 is the fluorescence of protein sample when no CPA has been added, F is the protein fluorescence at any given CPA concentration and F420 is the protein fluorescence in the presence of 3 µM of CPA. In the case of one ligand binding site, f follows a hyperbolic dependence upon ligand concentration given by: [drawing 2] […] Therefore, the binding of CPA to COMPcc is consistent with hyperbolic one site binding and the experimentally determined binding constant was 0.7±0.1 µM.

CCCCCCCC/C=C/CCCCCCCC(=O)O [18:1 trans-9 elaidic acid]
increase of midpoint transition temperature (Tm) of unfolding [1]: 10 °C

CCCCCCCCCCCCCC(=O)O [C14:0 [Myristic acid], Myristic acid]
Kd [2]: 800 ± 100 nM
Interaction Free Energy [2]: -8.31 ± 0.07 kcal/mol
IC50 [2]: 320 ± 50 nM

CC1=C(/C=C/C(C)=C/C=C/C(C)=C/CO)C(C)(C)CCC1 [vitamin A]
Interaction Free Energy [3]: -8.4 kcal/mol
Kd [3]: 600 nM
Interaction Free Energy [4]: -8.3 kcal/mol
Kd [4]: 800 nM

c1ccccc1 [benzene]
increase of midpoint transition temperature (Tm) of unfolding [1]: 2 °C

C1CCCCC1 [cyclohexane]
increase of midpoint transition temperature (Tm) of unfolding [1]: 2 °C

CC\C=C/C=C/C=C/C=C\CCCCCCCC(=O)O [cis-Parinaric acid]
Interaction Free Energy ([5]; from Kd of direct CPA binding): -8.42 ± 0.08 kcal/mol
Kd ([5]; hyperbolic one-site binding, excitation 320 nm, emission 420 nm, 1× PBS pH 7.4, 25°C): 700 ± 100 nM

CCCCCCCC/C=C\CCCCCCCC(=O)O [C18:1 [Oleic acid], Oleic acid]
Kd [2]: 900 ± 100 nM
Interaction Free Energy [2]: -8.24 ± 0.06 kcal/mol
IC50 [2]: 390 ± 50 nM

C=C1CC[C@H](O)C/C1=C/C=C1\CCC[C@]2(C)[C@@H]([C@H](C)CCCC(C)C)CC[C@@H]12 [vitamin D3]
increase of midpoint transition temperature (Tm) of unfolding [1]: 8 °C

CCCCCCCCCCCCCCCCCCCC(=O)O [C20:0 [Arachidic acid], Arachidic acid]
Kd [2]: 700 ± 100 nM
Interaction Free Energy [2]: -8.42 ± 0.08 kcal/mol
IC50 [2]: 280 ± 40 nM
